Calls of active or inactive are those of the source. The rule behind the calls is not given here.
What was measured:
MCF7 [1] = test: Cytotoxicity against human MCF7 cells after 72 hrs by CCK8 assay; format: functional, cell-based
[2] = Cytotoxicity against human MDST8 cells after 72 hrs by CCK8 assay; format: functional, cell-based
MCF7 [3] = test: Cytotoxicity against human MCF7 cells at 1 x 10^-5 M after 72 hrs by CCK8 assay; format: functional; conditions: for inhibition at 10 µM: MCF7, 72 h
[4] = (§1) Cytotoxicity against human MDST8 cells at 1 x 10^-5 M after 72 hrs by CCK8 assay; format: functional; conditions: MDST8, 72 h
[5] = Cytotoxicity against human MDST8 cells at 1 x 10^-8 M after 72 hrs by CCK8 assay; format: functional; conditions: MDST8, 72 h
MDST8 = test: as §1; format: functional
[6] = Homo sapiens, MCF7, 72 h, read-out: IC50
[7] = Homo sapiens, MDST8, 72 h, read-out: IC50

Row | SMILES | IC50 (MCF7 [1]; mcf7) | IC50 ([2]; mdst8) | other results
1 | CC(=O)O[C@@H]1O[C@H](C(=O)N[C@H](CO)Cc2ccccc2)[C@@H](OC(C)=O)[C@H](OC(C)=O)[C@H]1OC(C)=O | Not Active | Not Active | –
2 | CC(=O)O[C@@H]1O[C@H](C(=O)NCCCO)[C@@H](OC(C)=O)[C@H](OC(C)=O)[C@H]1OC(C)=O | Active | Not Active | inhibition at 10 µM (MCF7 [3]): > 60%
3 | O=C(NCCO)[C@H]1O[C@](O)(CO)[C@@H](O)[C@@H]1O | Active | Not Active | inhibition at 10 µM (MCF7 [3]): > 60%
4 | O=C(Nc1ccncc1)[C@H]1O[C@@H](O)[C@H](O)[C@@H](O)[C@@H]1O | – | – | IC50 (MCF7 [1]; [6]): 190 nM
5 | O=C(N[C@H](CO)Cc1ccccc1)[C@H]1OC(O)(CO)[C@@H](O)[C@@H]1O (single isomer, unassigned) | Not Active | Not Active | –
6 | CC(=O)O[C@@H]1O[C@H](C(=O)N[C@H]2CN(Cc3ccccc3)C[C@@H]2NC(=O)[C@H]2O[C@@H](OC(C)=O)[C@H](OC(C)=O)[C@@H](OC(C)=O)[C@@H]2OC(C)=O)[C@@H](OC(C)=O)[C@H](OC(C)=O)[C@H]1OC(C)=O | – | – | IC50 [2, 7]: 100 nM
7 | CC(=O)O[C@@H]1O[C@H](C(=O)N2CCCC2)[C@@H](OC(C)=O)[C@H](OC(C)=O)[C@H]1OC(C)=O | – | – | IC50 (MCF7 [1]; [6]): 1000 nM
8 | CC(C)(C)[C@@H](CO)NC(=O)[C@H]1OC(O)(CO)[C@@H](O)[C@@H]1O (single isomer, unassigned) | Active | – | inhibition (MCF7 [3]): Active
9 | CC(=O)O[C@@H]1O[C@H](C(=O)NCCO)[C@@H](OC(C)=O)[C@H](OC(C)=O)[C@H]1OC(C)=O | Active | Not Active | inhibition at 10 µM (MCF7 [3]): > 60%
10 | CC(=O)O[C@@H]1O[C@H](C(=O)NCCCBr)[C@@H](OC(C)=O)[C@H](OC(C)=O)[C@H]1OC(C)=O | Not Active | – | IC50 [2, 7]: 100 nM; inhibition at 10 µM [4]: > 90%; inhibition at 0.01 µM [5]: 50%
11 | C=CCOC(=O)[C@H]1O[C@@H](OC(C)=O)[C@H](OC(C)=O)[C@@H](OC(C)=O)[C@@H]1OC(C)=O | – | – | IC50 (MCF7 [1]; [6]): 4500 nM
12 | O=c1[nH]cc(F)c(=O)[nH]1 [FLUOROURACIL] | – | – | IC50 (MCF7 [1]; [6]): 520 nM; IC50 [2, 7]: 64 nM; inhibition at 10 µM [4]: 83%; inhibition at 10 µM (MCF7 [3]): 60%
13 | CC(C)[C@@H](CO)NC(=O)[C@H]1OC(O)(CO)[C@@H](O)[C@@H]1O (single isomer, unassigned) | – | Active | inhibition at 10 µM [4]: 80%
14 | CC(=O)O[C@@H]1O[C@H](C(=O)N[C@H](CO)c2ccccc2)[C@@H](OC(C)=O)[C@H](OC(C)=O)[C@H]1OC(C)=O | Not Active | Not Active | –
15 | O=C(NCCCO)[C@H]1O[C@](O)(CO)[C@@H](O)[C@@H]1O | Active | Not Active | inhibition at 10 µM (MCF7 [3]): > 60%
16 | CC(=O)O[C@@H]1O[C@H](C(=O)N[C@H](CO)C(C)C)[C@@H](OC(C)=O)[C@H](OC(C)=O)[C@H]1OC(C)=O | – | – | inhibition (MDST8): Active
17 | O=C(N[C@H](CO)c1ccccc1)[C@H]1O[C@](O)(CO)[C@@H](O)[C@@H]1O | Not Active | Not Active | –
